# Like-named read-outs stand apart in the source and are kept apart here.
# Assays:
# renalase [1] = target: renalase (Rattus norvegicus, UniProt Q5U2W9); conditions: CKD rats compared with control rats
# renalase [2] = test system: renalase
# Description: Horizontal bars at top of figure indicate period of 5 minute epinephrine infusions.
# renalase (Rattus norvegicus, UniProt Q5U2W9), sequence (Q5U2W9 18-315): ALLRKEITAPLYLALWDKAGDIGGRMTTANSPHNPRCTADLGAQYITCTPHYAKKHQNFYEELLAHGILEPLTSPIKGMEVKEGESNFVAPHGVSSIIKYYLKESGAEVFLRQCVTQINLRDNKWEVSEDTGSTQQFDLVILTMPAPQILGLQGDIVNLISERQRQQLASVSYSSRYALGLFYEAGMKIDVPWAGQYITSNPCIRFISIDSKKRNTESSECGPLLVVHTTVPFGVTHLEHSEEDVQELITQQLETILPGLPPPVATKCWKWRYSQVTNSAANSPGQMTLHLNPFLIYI
structure (smiles),measurement,setting,value
CNC[C@H](O)c1ccc(O)c(O)c1 [epinephrine],magnitude and duration of blood renalase activation,renalase [1],significantly lower
same,renalase protein levels in blood,renalase [2]; second administration 30 minutes later,only a modest decline
same,renalase protein levels in blood,renalase [2]; shortly after an initial infusion of epinephrine,drop significantly
same,renalase protein levels in blood,renalase [2]; within ten minutes of the initial infusion,recover and exceed initial protein levels

# Source: US7858084B2, “Methods of treatment with renalase (monoamine oxidase C)” (Yale University, priority 2005, dated 2010)
